ChEMBL document CHEMBL3885881, “DrugMatrix”

Organism: Rattus norvegicus
Test: DrugMatrix - Regimen: Daily Repeat
Type: toxicity, organism-based, Sprague-Dawley
Set-up: regimen Daily Repeat, gender Male, age 6-8 weeks
Conditions: in vivo, po, route oral GAVAGE, […]; for ABSOLUTE BASOPHIL / BASOPHIL / EOSINOPHIL / NUCLEATED RED BLOOD CELLS / MONOCYTE / ABSOLUTE EOSINOPHIL / ABSOLUTE LYMPHOCYTE / ABSOLUTE MONOCYTE / ABSOLUTE SEGMENTED NEUTROPHIL / ERYTHROCYTE COUNT / HEMATOCRIT / HEMOGLOBIN / LEUKOCYTE COUNT / LYMPHOCYTE / MEAN CORPUSCULAR HEMOGLOBIN / MEAN CORPUSCULAR HEMOGLOBIN CONCENTRATION / MEAN CORPUSCULAR VOLUME / NEUTROPHIL / PLATELET COUNT: tissue Blood; for TOTAL BILIRUBIN / URIC ACID / ALANINE AMINOTRANSFERASE / ALBUMIN / ALKALINE PHOSPHATASE / ASPARTATE AMINOTRANSFERASE / BLOOD UREA NITROGEN / CARBON DIOXIDE / CHLORIDE / CHOLESTEROL / CREATINE PHOSPHOKINASE / CREATININE / GLUCOSE / LACTATE DEHYDROGENASE / LIPASE / PHOSPHORUS / POTASSIUM / SODIUM / TOTAL PROTEIN: tissue Plasma
[1] = 0 mg/kg, 72 h, dose level Control, time 3 day
[2] = 0 mg/kg, 120 h, dose level Control, time 5 day
[3] = 10 mg/kg, 72 h, dose level M1, time 3 day
[4] = 10 mg/kg, 120 h, dose level M1, time 5 day
[5] = 650 mg/kg, 72 h, dose level High, time 3 day
[6] = 650 mg/kg, 120 h, dose level High, time 5 day
[7] = 72 h, dose 6.5 mg/Kg, dose level Low, time 3 day
[8] = 120 h, dose 6.5 mg/Kg, dose level Low, time 5 day

Structure (SMILES): O=C(c1ccc(OCCN2CCCCC2)cc1)c1c(-c2ccc(O)cc2)sc2cc(O)ccc12 [RALOXIFENE]
- ABSOLUTE BASOPHIL [1]: 0 CELLS/uL
- BASOPHIL [1]: 0%
- EOSINOPHIL [1]: 0.17%
- NUCLEATED RED BLOOD CELLS [1]: 0 /100WBC
- ABSOLUTE BASOPHIL [2]: 0 CELLS/uL
- BASOPHIL [2]: 0%
- MONOCYTE [2]: 1.17%
- TOTAL BILIRUBIN [2]: 0.1 mg/dL
- URIC ACID [2]: 0.52 mg/dL
- ABSOLUTE BASOPHIL [3]: 0 CELLS/uL
- ABSOLUTE EOSINOPHIL [3]: 29.33 CELLS/uL
- ABSOLUTE LYMPHOCYTE [3]: 7440 CELLS/uL
- ABSOLUTE MONOCYTE [3]: 116 CELLS/uL
- ABSOLUTE SEGMENTED NEUTROPHIL [3]: 681.33 CELLS/uL
- BASOPHIL [3]: 0%
- EOSINOPHIL [3]: 0.33%
- ERYTHROCYTE COUNT [3]: 5.44 x10E6/uL
- HEMATOCRIT [3]: 34.47%
- HEMOGLOBIN [3]: 13.3 G/DL
- LEUKOCYTE COUNT [3]: 8.27 x10E3/uL
- LYMPHOCYTE [3]: 90.33%
- MEAN CORPUSCULAR HEMOGLOBIN [3]: 24.53 pg
- MEAN CORPUSCULAR HEMOGLOBIN CONCENTRATION [3]: 38.6 G/DL
- MEAN CORPUSCULAR VOLUME [3]: 63.53 fL
- MONOCYTE [3]: 1.33%
- NEUTROPHIL [3]: 8%
- NUCLEATED RED BLOOD CELLS [3]: 0.33 /100WBC
- PLATELET COUNT [3]: 1223 x10E3/uL
- ALANINE AMINOTRANSFERASE [3]: 53.67 u/L
- ALBUMIN [3]: 4.43 G/DL
- ALKALINE PHOSPHATASE [3]: 398.33 u/L
- ASPARTATE AMINOTRANSFERASE [3]: 90.67 u/L
- BLOOD UREA NITROGEN [3]: 10 mg/dL
- CARBON DIOXIDE [3]: 31.67 mmol/L
- CHLORIDE [3]: 101.67 MEQ/L
- CHOLESTEROL [3]: 52.67 mg/dL
- CREATINE PHOSPHOKINASE [3]: 300.33 u/L
- CREATININE [3]: 0.24 mg/dL
- GLUCOSE [3]: 151.33 mg/dL
- LACTATE DEHYDROGENASE [3]: 123 u/L
- LIPASE [3]: 9.33 u/L
- PHOSPHORUS [3]: 10.93 mg/dL
- POTASSIUM [3]: 5.67 MEQ/L
- SODIUM [3]: 147.7 MEQ/L
- TOTAL BILIRUBIN [3]: 0.13 mg/dL
- TOTAL PROTEIN [3]: 6.5 G/DL
- URIC ACID [3]: 0.87 mg/dL
- ABSOLUTE BASOPHIL [4]: 0 CELLS/uL
- ABSOLUTE EOSINOPHIL [4]: 34 CELLS/uL
- ABSOLUTE LYMPHOCYTE [4]: 8594.67 CELLS/uL
- ABSOLUTE MONOCYTE [4]: 97 CELLS/uL
- ABSOLUTE SEGMENTED NEUTROPHIL [4]: 974.33 CELLS/uL
- BASOPHIL [4]: 0%
- EOSINOPHIL [4]: 0.33%
- ERYTHROCYTE COUNT [4]: 5.62 x10E6/uL
- HEMATOCRIT [4]: 34.3%
- HEMOGLOBIN [4]: 13.33 G/DL
- LEUKOCYTE COUNT [4]: 9.7 x10E3/uL
- LYMPHOCYTE [4]: 89%
- MEAN CORPUSCULAR HEMOGLOBIN [4]: 23.8 pg
- MEAN CORPUSCULAR HEMOGLOBIN CONCENTRATION [4]: 38.93 G/DL
- MEAN CORPUSCULAR VOLUME [4]: 61.13 fL
- MONOCYTE [4]: 1%
- NEUTROPHIL [4]: 9.67%
- NUCLEATED RED BLOOD CELLS [4]: 0 /100WBC
- PLATELET COUNT [4]: 1211.33 x10E3/uL
- ALANINE AMINOTRANSFERASE [4]: 42.33 u/L
- ALBUMIN [4]: 4.5 G/DL
- ALKALINE PHOSPHATASE [4]: 301.33 u/L
- ASPARTATE AMINOTRANSFERASE [4]: 77.67 u/L
- BLOOD UREA NITROGEN [4]: 9 mg/dL
- CARBON DIOXIDE [4]: 28.67 mmol/L
- CHLORIDE [4]: 102 MEQ/L
- CHOLESTEROL [4]: 50 mg/dL
- CREATINE PHOSPHOKINASE [4]: 198.67 u/L
- CREATININE [4]: 0.33 mg/dL
- GLUCOSE [4]: 168.33 mg/dL
- LACTATE DEHYDROGENASE [4]: 130.67 u/L
- LIPASE [4]: 8.33 u/L
- PHOSPHORUS [4]: 12.1 mg/dL
- POTASSIUM [4]: 4.86 MEQ/L
- SODIUM [4]: 146.9 MEQ/L
- TOTAL BILIRUBIN [4]: 0.1 mg/dL
- TOTAL PROTEIN [4]: 6.33 G/DL
- URIC ACID [4]: 0.77 mg/dL
- ABSOLUTE BASOPHIL [5]: 0 CELLS/uL
- BASOPHIL [5]: 0%
- NUCLEATED RED BLOOD CELLS [5]: 0 /100WBC
- LIPASE [5]: 10.33 u/L
- URIC ACID [5]: 0.67 mg/dL
- ABSOLUTE BASOPHIL [6]: 0 CELLS/uL
- BASOPHIL [6]: 0%
- NUCLEATED RED BLOOD CELLS [6]: 0 /100WBC
- ABSOLUTE BASOPHIL [7]: 0 CELLS/uL
- ABSOLUTE EOSINOPHIL [7]: 59.33 CELLS/uL
- ABSOLUTE LYMPHOCYTE [7]: 5494.67 CELLS/uL
- ABSOLUTE MONOCYTE [7]: 60.33 CELLS/uL
- ABSOLUTE SEGMENTED NEUTROPHIL [7]: 452.33 CELLS/uL
- BASOPHIL [7]: 0%
- EOSINOPHIL [7]: 0.67%
- ERYTHROCYTE COUNT [7]: 5.5 x10E6/uL
- HEMATOCRIT [7]: 35.2%
- HEMOGLOBIN [7]: 13.7 G/DL
- LEUKOCYTE COUNT [7]: 6.07 x10E3/uL
- LYMPHOCYTE [7]: 90.33%
- MEAN CORPUSCULAR HEMOGLOBIN [7]: 24.87 pg
- MEAN CORPUSCULAR HEMOGLOBIN CONCENTRATION [7]: 38.93 G/DL
- MEAN CORPUSCULAR VOLUME [7]: 63.93 fL
- MONOCYTE [7]: 1.33%
- NEUTROPHIL [7]: 7.67%
- NUCLEATED RED BLOOD CELLS [7]: 0.67 /100WBC
- PLATELET COUNT [7]: 1046.33 x10E3/uL
- ALANINE AMINOTRANSFERASE [7]: 63 u/L
- ALBUMIN [7]: 4.13 G/DL
- ALKALINE PHOSPHATASE [7]: 536.33 u/L
- ASPARTATE AMINOTRANSFERASE [7]: 92 u/L
- BLOOD UREA NITROGEN [7]: 8.67 mg/dL
- CARBON DIOXIDE [7]: 29.67 mmol/L
- CHLORIDE [7]: 98.33 MEQ/L
- CHOLESTEROL [7]: 41 mg/dL
- CREATINE PHOSPHOKINASE [7]: 405 u/L
- CREATININE [7]: 0.12 mg/dL
- GLUCOSE [7]: 157 mg/dL
- LACTATE DEHYDROGENASE [7]: 73.33 u/L
- LIPASE [7]: 9.67 u/L
- PHOSPHORUS [7]: 10.5 mg/dL
- POTASSIUM [7]: 5.24 MEQ/L
- SODIUM [7]: 143.33 MEQ/L
- TOTAL BILIRUBIN [7]: 0.13 mg/dL
- TOTAL PROTEIN [7]: 6.07 G/DL
- URIC ACID [7]: 0.63 mg/dL
- ABSOLUTE BASOPHIL [8]: 0 CELLS/uL
- ABSOLUTE EOSINOPHIL [8]: 0 CELLS/uL
- ABSOLUTE LYMPHOCYTE [8]: 6955.67 CELLS/uL
- ABSOLUTE MONOCYTE [8]: 124.33 CELLS/uL
- ABSOLUTE SEGMENTED NEUTROPHIL [8]: 286.67 CELLS/uL
- BASOPHIL [8]: 0%
- EOSINOPHIL [8]: 0%
- ERYTHROCYTE COUNT [8]: 5.53 x10E6/uL
- HEMATOCRIT [8]: 34.77%
- HEMOGLOBIN [8]: 13.37 G/DL
- LEUKOCYTE COUNT [8]: 7.37 x10E3/uL
- LYMPHOCYTE [8]: 94.33%
- MEAN CORPUSCULAR HEMOGLOBIN [8]: 24.17 pg
- MEAN CORPUSCULAR HEMOGLOBIN CONCENTRATION [8]: 38.47 G/DL
- MEAN CORPUSCULAR VOLUME [8]: 62.87 fL
- MONOCYTE [8]: 1.67%
- NEUTROPHIL [8]: 4%
- NUCLEATED RED BLOOD CELLS [8]: 0 /100WBC
- PLATELET COUNT [8]: 1226.67 x10E3/uL
- ALANINE AMINOTRANSFERASE [8]: 57 u/L
- ALBUMIN [8]: 4.1 G/DL
- ALKALINE PHOSPHATASE [8]: 411.67 u/L
- ASPARTATE AMINOTRANSFERASE [8]: 105.33 u/L
- BLOOD UREA NITROGEN [8]: 10.33 mg/dL
- CARBON DIOXIDE [8]: 28.33 mmol/L
- CHLORIDE [8]: 99.33 MEQ/L
- CHOLESTEROL [8]: 26 mg/dL
- CREATINE PHOSPHOKINASE [8]: 332.33 u/L
- CREATININE [8]: 0.19 mg/dL
- GLUCOSE [8]: 169 mg/dL
- LACTATE DEHYDROGENASE [8]: 99.67 u/L
- LIPASE [8]: 30 u/L
- PHOSPHORUS [8]: 11.23 mg/dL
- POTASSIUM [8]: 5.86 MEQ/L
- SODIUM [8]: 144.43 MEQ/L
- TOTAL BILIRUBIN [8]: 0.1 mg/dL
- TOTAL PROTEIN [8]: 5.87 G/DL
- URIC ACID [8]: 1 mg/dL
